Laboratory results: paper PMC4335020, “Single Oral Dose Pharmacokinetics of Decursin and Decursinol Angelate in Healthy Adult Men and Women” (PLoS ONE, 2015)
Read-outs that look alike come from different tables or passages of the source.

Assay: Single oral dose human plasma pharmacokinetics of D, DA and DOH after Cogni.Q
Assay type: in vivo
Excerpt: Ten healthy male and 10 female subjects were recruited by public announcement in Amarillo, TX, from January 2013 to April 2013 (see Fig. 1 CONSORT diagram). The sample size for each gender was chosen without power calculation due to the lack of prior knowledge of PK parameter variance in humans. After receiving informed consent verbally and in writing, the health status of each candidate was confirmed by health questionnaire, plasma biochemistry (hepatic and renal functions), complete blood cell count (CBC), and a physical examination by a participating academic physician. Subjects with diabetes, or pregnant, perinatal and breastfeeding women were excluded. For the 48 hours preceding study visit until the final blood draw, all subjects were instructed to avoid taking any prescription or nonprescription drugs, vitamins, and herbal/dietary supplements. Each subject was compensated for participating in the study per TTUHSC IRB approved rate.
Eligible subjects arrived at our clinical facility at 0700 (7:00 am) on the test day after a fast beginning at 2200 (10:00 pm) the previous night. After a brief review of vital signs, the nurse placed an intravenous (IV) line with saline drip in one arm of each subject. A baseline pre-dose (hour 0) blood sample was drawn through the IV line; after that subjects swallowed four Cogni.Q vegicaps with 240 mL of water at hour 0 under direct supervision. Subjects stayed at the clinical facility in their room for the next 12 hours, returning at 24 and 48 hours. Blood was drawn at baseline (hour 0) and at 0.5, 1, 2, 3, 4, 6, 8, 12, 24 and 48 hours after dosing into Vacutainer Blood Collection Tube (Becton-Dickinson, Franklin Lakes, NJ. Product Number: 367874, Sodium heparin was used as anti-coagulant). Water was allowed as desired except for within the first hour after Cogni.Q consumption. All subjects received standardized meals at post-dose hours 4.5 and 9.5 but no food was allowed for at least the first 4 hours post-dose.
Plasma was prepared by centrifuging the heparinized blood at 1000 g for 15 minutes at room temperature. Urine samples (40mL) were collected within time spans of 0–4, 4–8, 8–12 and 12–24 hours (total volume of urine was recorded). All plasma and urine samples were put on dry ice immediately and then stored at -80°C freezer until analysis.
Plasma samples were extracted with a validated solid supported liquid extraction (SLE) method facilitated with a positive pressure manifold (Biotage, Charlotte, NC). Briefly, 100 μL of plasma sample was spiked with 5 μL of 10 ng/μL prednisolone (IS), diluted with 200 μL of LC-MS grade water, mixed and loaded onto ISOLUTE SLE+ 400 μL Array Well cartridges (Biotage, Charlotte, NC). A pulse of minimum positive pressure was applied to facilitate the samples absorption into the cartridges. After the samples were allowed to absorb for 5 min, the compounds were eluted with 2×500 μL tert-butyl methyl ether. The eluent was dried in a Speedvac and the resulting residue was reconstituted in 50 μL of methanol for UHPLC-MS/MS analysis.
Eight-point calibration curves were constructed for D, DA and DOH, at concentrations of 0.1, 0.5, 1, 5, 10, 20, 50 and 100 μg/L for D and DA, and at concentrations of 1, 5, 10, 50, 100, 200, 500 and 1000 μg/L for DOH, respectively. The linear range was 0.1–100 μg/L (0.3–300 nmol/L), 0.1–100 μg/L (0.3–300 nmol/L) and 1–1000 μg/L (4–4000 nmol/L) for D, DA and DOH, respectively. The inter- and intra-assay CV were lower than 6.5% and the accuracy was between 90–105%. Calibration curve was run for each batch of samples analyzed. The mean calibration curve correlation coefficient (r) for D, DA and DOH was 0.999, 0.999 and 0.998, respectively (data from 7–10 calibration curves). In addition, 70% of the plasma samples were extracted and analyzed twice, the data from two replicate analyses were nearly identical and combined for final data analyses and presentation. […]

SMILES: CC1(C)Oc2cc3oc(=O)ccc3cc2C[C@@H]1O [DOH, decursinol]
- Cmax (both sexes, human, plasma, oral, 4 Cogni.Q vegicaps, n=20 (S1 Table), read-out: Cmax, nM, Grand Mean): 2480 nM
- Tmax (both sexes, human, plasma, oral, 4 Cogni.Q vegicaps, n=20 (S1 Table), read-out: Tmax, h, Grand Mean): 3.3 h
- half-life (both sexes, human, plasma, oral, all subjects, outliers excluded (S1 Table), read-out: Terminal t1/2, h, Grand Mean (converted)): 7.4 h
- Cmax (both sexes, human, plasma, oral, human subjects, read-out: plasma C max, average value): 2500 nM
- AUC(0-t) (both sexes, human, plasma, oral, n=20 (S1 Table), read-out: AUC0-48h, Grand Mean): 27600 nmol·h/L
- Cmax (both sexes, human, plasma, oral, range over human subjects, read-out: plasma C max, range in human subjects): 1300 to 4000 nM
- Cmax (both sexes, human, plasma, po, all human subjects n = 20, single oral dose 4 Cogni.Q vegicaps (119 mg D, 77 mg DA), plasma, read-out: Cmax, nmol/L Mean (SD)): 2480 nM
- AUC(0-t) (both sexes, human, plasma, po, all human subjects n = 20, single oral dose Cogni.Q, plasma (Table 2), read-out: AUC0–48h, nmol/L, Mean (SD)): 27600 nmol·h/L
- AUC(0-t) (both sexes, human, twenty healthy subjects, single oral dose Cogni.Q, plasma (abstract), read-out: mean area under the curve (AUC0-48h)): 27600 nmol·h/L
- Tmax (both sexes, all human subjects n = 20, single oral dose 4 Cogni.Q vegicaps (119 mg D, 77 mg DA), plasma, read-out: Tmax, h, Mean (SD)): 3.3 h
- half-life (both sexes, all human subjects, four outlier subjects excluded, single oral dose Cogni.Q, plasma, read-out: Terminal t1/2, h, Mean (SD) (converted)): 7.4 h
- AUC(0-t) (female, human, plasma, oral, 4 Cogni.Q vegicaps, Women n=10 (S1 Table), read-out: AUC0-48h, Mean, F): 32700 nmol·h/L
- Cmax (female, human, plasma, oral, 4 Cogni.Q vegicaps, Women n=10 (S1 Table), read-out: Cmax, nM, Mean, F): 2610 nM
- Tmax (female, human, plasma, oral, Women n=10 (S1 Table), read-out: Tmax, h, Mean, F): 4.1 h
- half-life (female, human, plasma, oral, Women, outliers excluded (S1 Table), read-out: Terminal t1/2, h, Mean, F (converted)): 8.3 h
- AUC(0-t) (female, human, plasma, po, Women N = 10, single oral dose Cogni.Q, plasma, read-out: AUC0–48h, h.nmol/L Mean (SD)): 32700 nmol·h/L
- Cmax (female, human, plasma, po, Women N = 10, single oral dose Cogni.Q, plasma, read-out: Cmax, nmol/L, Mean (SD)): 2610 nM
- Tmax (female, human, plasma, po, Women N = 10, single oral dose Cogni.Q, plasma, read-out: Tmax, h, Mean (SD)): 4.1 h
- half-life (female, human, plasma, po, Women, outlier subjects excluded, single oral dose Cogni.Q, plasma, read-out: T1/2, h, terminal Mean (SD) (converted)): 8.3 h
- half-life (human, plasma, oral, 4 Cogni.Q vegicaps, subject S1 (115 lb), outlier, excluded from means, read-out: Terminal t1/2, h (converted)): 9.9 h
- AUC(0-t) (human, plasma, oral, 4 Cogni.Q vegicaps, subject S1 (115 lb), read-out: AUC0-48h): 17600 nmol·h/L
- Cmax (human, plasma, oral, 4 Cogni.Q vegicaps, subject S1 (115 lb), read-out: Cmax): 2380 nM
- Tmax (human, plasma, oral, 4 Cogni.Q vegicaps, subject S1 (115 lb), read-out: Tmax): 3 h
- AUC(0-t) (human, plasma, oral, 4 Cogni.Q vegicaps, subject S2 (194 lb), read-out: AUC0-48h): 25000 nmol·h/L
- Cmax (human, plasma, oral, 4 Cogni.Q vegicaps, subject S2 (194 lb), read-out: Cmax): 2390 nM
- half-life (human, plasma, oral, 4 Cogni.Q vegicaps, subject S2 (194 lb), read-out: Terminal t1/2, h (converted)): 9.2 h
- Tmax (human, plasma, oral, 4 Cogni.Q vegicaps, subject S2 (194 lb), read-out: Tmax): 4 h
- half-life (human, plasma, oral, 4 Cogni.Q vegicaps, subject S3 (170 lb), outlier, excluded from means, read-out: Terminal t1/2, h (converted)): 5.2 h
- AUC(0-t) (human, plasma, oral, 4 Cogni.Q vegicaps, subject S3 (170 lb), read-out: AUC0-48h): 8310 nmol·h/L
- Cmax (human, plasma, oral, 4 Cogni.Q vegicaps, subject S3 (170 lb), read-out: Cmax): 1560 nM
- Tmax (human, plasma, oral, 4 Cogni.Q vegicaps, subject S3 (170 lb), read-out: Tmax): 6 h
- AUC(0-t) (human, plasma, oral, 4 Cogni.Q vegicaps, subject S4 (170 lb), read-out: AUC0-48h): 63700 nmol·h/L
- Cmax (human, plasma, oral, 4 Cogni.Q vegicaps, subject S4 (170 lb), read-out: Cmax): 2680 nM
- half-life (human, plasma, oral, 4 Cogni.Q vegicaps, subject S4 (170 lb), read-out: Terminal t1/2, h (converted)): 11.1 h
- Tmax (human, plasma, oral, 4 Cogni.Q vegicaps, subject S4 (170 lb), read-out: Tmax): 6 h
- AUC(0-t) (human, plasma, oral, 4 Cogni.Q vegicaps, subject S5 (161 lb), read-out: AUC0-48h): 19200 nmol·h/L
- Cmax (human, plasma, oral, 4 Cogni.Q vegicaps, subject S5 (161 lb), read-out: Cmax): 1530 nM
- half-life (human, plasma, oral, 4 Cogni.Q vegicaps, subject S5 (161 lb), read-out: Terminal t1/2, h (converted)): 7.7 h
- Tmax (human, plasma, oral, 4 Cogni.Q vegicaps, subject S5 (161 lb), read-out: Tmax): 2 h
- AUC(0-t) (human, plasma, oral, 4 Cogni.Q vegicaps, subject S6 (120 lb), read-out: AUC0-48h): 37500 nmol·h/L
- Cmax (human, plasma, oral, 4 Cogni.Q vegicaps, subject S6 (120 lb), read-out: Cmax): 2770 nM
- half-life (human, plasma, oral, 4 Cogni.Q vegicaps, subject S6 (120 lb), read-out: Terminal t1/2, h (converted)): 7.2 h
- Tmax (human, plasma, oral, 4 Cogni.Q vegicaps, subject S6 (120 lb), read-out: Tmax): 4 h
- AUC(0-t) (human, plasma, oral, 4 Cogni.Q vegicaps, subject S7 (180 lb), read-out: AUC0-48h): 51800 nmol·h/L
- Cmax (human, plasma, oral, 4 Cogni.Q vegicaps, subject S7 (180 lb), read-out: Cmax): 3970 nM
- half-life (human, plasma, oral, 4 Cogni.Q vegicaps, subject S7 (180 lb), read-out: Terminal t1/2, h (converted)): 6.5 h
- Tmax (human, plasma, oral, 4 Cogni.Q vegicaps, subject S7 (180 lb), read-out: Tmax): 6 h
- AUC(0-t) (human, plasma, oral, 4 Cogni.Q vegicaps, subject S8 (160 lb), read-out: AUC0-48h): 30400 nmol·h/L
- Cmax (human, plasma, oral, 4 Cogni.Q vegicaps, subject S8 (160 lb), read-out: Cmax): 2530 nM
- half-life (human, plasma, oral, 4 Cogni.Q vegicaps, subject S8 (160 lb), read-out: Terminal t1/2, h (converted)): 5.5 h
- Tmax (human, plasma, oral, 4 Cogni.Q vegicaps, subject S8 (160 lb), read-out: Tmax): 3 h
- AUC(0-t) (human, plasma, oral, 4 Cogni.Q vegicaps, subject S9 (158 lb), read-out: AUC0-48h): 17700 nmol·h/L
- Cmax (human, plasma, oral, 4 Cogni.Q vegicaps, subject S9 (158 lb), read-out: Cmax): 2110 nM
